In this assay the target is T1, human PAH with the R408W mutation (Homo sapiens, UniProt P00439, R408W).
T1 construct: expressed in transfected cells
T1 sequence (P00439 1-452 R408W): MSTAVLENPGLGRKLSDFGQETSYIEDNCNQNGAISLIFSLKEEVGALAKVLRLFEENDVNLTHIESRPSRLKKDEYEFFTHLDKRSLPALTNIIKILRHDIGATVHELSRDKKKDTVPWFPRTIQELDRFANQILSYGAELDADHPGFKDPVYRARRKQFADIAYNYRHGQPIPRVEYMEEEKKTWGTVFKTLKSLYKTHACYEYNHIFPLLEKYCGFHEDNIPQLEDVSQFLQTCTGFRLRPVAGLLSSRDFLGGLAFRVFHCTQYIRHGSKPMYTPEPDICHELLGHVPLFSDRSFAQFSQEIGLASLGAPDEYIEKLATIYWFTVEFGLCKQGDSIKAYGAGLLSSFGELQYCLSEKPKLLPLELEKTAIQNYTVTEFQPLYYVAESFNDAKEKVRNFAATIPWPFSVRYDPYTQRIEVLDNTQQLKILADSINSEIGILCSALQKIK
Kind of assay: Cell Based Phenylalanine Flux Assay. The arrangement: scale not given here. Conditions: A375 cells expressing human R408W PAH, 13C-Tyrosine by LC-MS, average where tested multiple times.

Where [1] appears, read: 24 hrs compound incubation, read-out: AC50.
Where [2] appears, read: 24 hrs with compound, read-out: AC50.

Each structure is given as a SMILES string. Like-named read-outs stand apart in the source and are kept apart here.

By AC50 is commonly meant the concentration giving half of the maximal activity seen. For `Cc1ncoc1C(=O)N1CCc2[nH]cnc2[C@H]1c1nc2ccccc2s1` [Example 1161], the AC50 under setting [1] was less than 0.5 µM.

Turning to `O=C(c1cc(CO)n[nH]1)N1CCc2[nH]cnc2C1c1nc2c(F)cccc2s1` (stereo not shown), the AC50 under setting [2] was greater than 5 µM.

Turning to `O=C(c1nnc(-c2cc(C(F)(F)F)ccn2)o1)N1CCc2[nH]cnc2[C@H]1c1nc2c(F)cccc2s1` [Example 1906, (S)-(4-(4-fluorobenzo[d]thiazol-2-yl)-6,7-dihydro-1H-imidazo[4,5-c]pyridin-5(4H)-yl)(5-(4-(trifluoromethyl)pyridin-2-yl)-1,3,4-oxadiazol-2-yl)methanone], the AC50 under setting [1] is less than 0.5 µM.

Consider `Cc1nc(N2CCOCC2)oc1C(=O)N1CCCc2[nH]cnc2C1c1nc2ccccc2s1` (stereo not shown), for which the AC50 under setting [2] was in the range of 1 to 5 µM.

For `O=C(c1cnn2cc(Br)ccc12)N1CCc2[nH]cnc2[C@H]1c1nc2ccccc2[nH]1` [(S)-(4-(1H-benzo[d]imidazol-2-yl)-1,4,6,7-tetrahydro-5H-imidazo[4,5-c]pyridin-5-yl)(6-bromopyrazolo[1,5-a]pyridin-3-yl)methanone], the AC50 under setting [2] was in the range of 1 to 5 µM.

Consider `Cn1cc(-c2ccc3c(C(=O)N4CCc5[nH]cnc5[C@H]4c4nc5ccccc5s4)cnn3c2)cn1` [Example 1213], for which the AC50 under setting [1] is less than 0.5 µM.

Consider `Cn1ncc(C(=O)N2CCc3[nH]cnc3C2c2nc3c(C(F)(F)F)cccc3s2)c1C(F)F` (stereo not shown), for which the AC50 under setting [2] lay in the range of 1 to 5 µM.

Regarding `CC(C)n1ncnc1C(=O)N1CCc2[nH]cnc2[C@H]1c1nc2ccccc2s1` [Example 2037], under setting [1], the AC50 was less than 0.5 µM.

For `O=C(Cc1cncs1)N1CCc2[nH]cnc2C1c1nc2ccccc2s1` (stereo not shown), the AC50 under setting [2] was greater than 5 µM.

For the compound `O=C(c1nc2ccccc2s1)N1CCc2[nH]cnc2C1c1nc2ccccc2[nH]1` (stereo not shown), the AC50 under setting [2] was greater than 5 µM.

`O=C(c1cn(CC(F)(F)F)nc1Cl)N1CCc2[nH]cnc2[C@@H]1c1nc2c(F)cccc2s1` [Example 1763, (R)-(3-chloro-1-(2,2,2-trifluoroethyl)-1H-pyrazol-4-yl)(4-(4-fluorobenzo[d]thiazol-2-yl)-6,7-dihydro-1H-imidazo[4,5-c]pyridin-5(4H)-yl)methanone]: the AC50 under setting [1] lay within 1 to 5 µM.

`CC(C)(O)c1nc(Cl)c(C(=O)N2CCc3[nH]cnc3[C@H]2c2nc3ccccc3s2)o1` [Example 1963]: the AC50 under setting [1] was less than 0.5 µM.

On to `O=C(c1cnn2ccc(F)cc12)N1CCc2[nH]cnc2[C@@H]1c1nc2c(F)cccc2s1` [Example 1169, (R)-(4-(4-fluorobenzo[d]thiazol-2-yl)-6,7-dihydro-1H-imidazo[4,5-c]pyridin-5(4H)-yl)(5-fluoropyrazolo[1,5-a]pyridin-3-yl)methanone], for which the AC50 under setting [1] fell in the range of 1 to 5 µM.

On to `CC(C)(O)Cn1ncc(C(=O)N2CCc3[nH]cnc3C2c2nc3c(F)cccc3s2)c1Cl` (stereo not shown), for which the AC50 under setting [2] lay within 1 to 5 µM.

Regarding `O=C(c1nnc(C2CC(F)(F)C2)o1)N1CCc2[nH]cnc2C1c1nc2ccccc2s1` (stereo not shown), the AC50 under setting [2] was 1 to 5 µM.

For the compound `O=C(c1cnn2ccc(Cl)cc12)N1CCc2[nH]cnc2C1c1nc2ccc(Cl)cc2[nH]1` (stereo not shown), the AC50 under setting [2] is 1 to 5 µM.

Regarding `Cn1cc(C(C)(C)C(=O)N2CCc3[nH]cnc3C2c2nc3ccccc3s2)cn1` (stereo not shown), the AC50 result (24 hrs with compound) was “E, E”.

Turning to `CC(C)(C)c1ncoc1C(=O)N1CCc2[nH]cnc2[C@@H]1c1nc2c(F)cccc2s1` [Example 2182, (R)-(4-(tert-butyl)oxazol-5-yl)(4-(4-fluorobenzo[d]thiazol-2-yl)-6,7-dihydro-1H-imidazo[4,5-c]pyridin-5(4H)-yl)methanone], under setting [1], the AC50 fell in the range of 1 to 5 µM.

For the compound `O=C(Cc1cncs1)N1CCc2[nH]cnc2[C@H]1c1nc2ccccc2[nH]1` [(S)-1-(4-(1H-benzo[d]imidazol-2-yl)-6,7-dihydro-1H-imidazo[4,5-c]pyridin-5(4H)-yl)-2-(thiazol-5-yl)ethanone], under setting [2], the AC50 was in the range of 1 to 5 µM.

On to `CCc1ccc2c(C(=O)N3CCc4[nH]cnc4[C@@H]3c3nc4ccccc4s3)cnn2c1` [Example 1244, (R)-(4-(benzo[d]thiazol-2-yl)-6,7-dihydro-1H-imidazo[4,5-c]pyridin-5(4H)-yl)(6-ethylpyrazolo[1,5-a]pyridin-3-yl)methanone], for which the AC50 under setting [1] was greater than 5 µM.

In the case of `O=C(c1nc2ccccc2[nH]1)N1CCc2[nH]cnc2[C@H]1c1nc2ccccc2[nH]1` [(S)-(4-(1H-benzo[d]imidazol-2-yl)-1,4,6,7-tetrahydro-5H-imidazo[4,5-c]pyridin-5-yl)(1H-benzo[d]imidazol-2-yl)methanone], under setting [2], the AC50 lay in the range of 1 to 5 µM.

`O=C(c1ocnc1-c1ccccc1)N1CCc2[nH]cnc2[C@H]1c1nc2ccccc2s1` [Example 1442]: under setting [1], the AC50 is 0.5 to 1 µM.

For `O=C(c1oc(-c2ccccc2)nc1-c1ccccc1)N1CCc2[nH]cnc2C1c1nc2ccccc2s1` (stereo not shown), the AC50 under setting [2] was greater than 5 µM.

As to `C[C@H]1CN(C(=O)c2nnc(-c3cnn(C)c3)o2)[C@@H](c2nc3ccccc3s2)c2nc[nH]c21` [Example 1751, ((4R,7S)-4-(benzo[d]thiazol-2-yl)-7-methyl-6,7-dihydro-1H-imidazo[4,5-c]pyridin-5(4H)-yl)(5-(1-methyl-1H-pyrazol-4-yl)-1,3,4-oxadiazol-2-yl)methanone], the AC50 under setting [1] was greater than 5 µM.

Take `O=C(CCC1CC1)N1CCc2[nH]cnc2[C@H]1c1nc2ccc(Cl)cc2[nH]1` [Example 939, (S)-1-(4-(6-chloro-1H-benzo[d]imidazol-2-yl)-6,7-dihydro-1H-imidazo[4,5-c]pyridin-5(4H)-yl)-3-cyclopropylpropan-1-one]: under setting [1], the AC50 was less than 0.5 µM.

Turning to `N#Cc1nc(NCC(F)(F)F)oc1C(=O)N1CCc2[nH]cnc2C1c1nc2ccccc2s1` (stereo not shown), the AC50 under setting [2] was greater than 5 µM.

On to `CC(C)(C)CCC(=O)N1CCc2[nH]cnc2[C@H]1c1nc2ccc(Br)cc2[nH]1` [Example 942, (S)-1-(4-(6-bromo-1H-benzo[d]imidazol-2-yl)-6,7-dihydro-1H-imidazo[4,5-c]pyridin-5(4H)-yl)-4,4-dimethylpentan-1-one], for which the AC50 under setting [1] is 0.5 to 1 µM.

`O=C(c1cnn(CC2CC(F)(F)C2)c1Cl)N1CCc2[nH]cnc2[C@H]1c1nc2c(F)cccc2s1` [Example 1989, (S)-(5-chloro-1-((3,3-difluorocyclobutyl)methyl)-1H-pyrazol-4-yl)(4-(4-fluorobenzo[d]thiazol-2-yl)-6,7-dihydro-1H-imidazo[4,5-c]pyridin-5(4H)-yl)methanone]: under setting [1], the AC50 lay in the range of 1 to 5 µM.

With `[2H]C([2H])([2H])OCc1cc(C(=O)N2CCc3[nH]cnc3C2c2nc3c(F)cccc3s2)n(C)n1` (stereo not shown), the AC50 under setting [2] fell in the range of 1 to 5 µM.

Regarding `CN1CCN(c2nnc(C(=O)N3CCc4[nH]cnc4C3c3nc4ccccc4s3)o2)CC1` (stereo not shown), the AC50 under setting [2] fell in the range of 1 to 5 µM.

For the compound `O=C(c1cn(CC(F)(F)F)nc1C(F)F)N1CCc2[nH]cnc2[C@H]1c1nc2c(F)cccc2s1` [Example 1987], the AC50 under setting [1] was less than 0.5 µM.

Regarding `Cc1nnc(C(=O)N2CCc3[nH]cnc3C2c2nc3c(F)cccc3s2)n1C` (stereo not shown), the AC50 under setting [2] was 1 to 5 µM.

Regarding `O=C(c1nnc(-c2c[nH]nc2C(F)(F)F)o1)N1CCc2[nH]cnc2[C@@H]1c1nc2ccccc2s1` [Example 1966, (R)-(4-(benzo[d]thiazol-2-yl)-6,7-dihydro-1H-imidazo[4,5-c]pyridin-5(4H)-yl)(5-(3-(trifluoromethyl)-1H-pyrazol-4-yl)-1,3,4-oxadiazol-2-yl)methanone], the AC50 under setting [1] lay within 1 to 5 µM.

Take `CC1(C(=O)N2CCc3[nH]cnc3[C@@H]2c2nc3ccccc3s2)CC1(F)F` (single isomer, unassigned) [Example 1290]: under setting [1], the AC50 is greater than 5 µM.
